Experimental data taken from US20070049593A1 (priority 2004, published 2007).
Where a name gives a salt, the structure may show the parent alone.

target: T1, HCV polymerase (Hepatitis C virus genotype 1b, UniProt P26663); assay: biochemical; design: species or system HCV BK strain
T1 construct: a region encoding NS5B (J Virol 1991 March, 65(3), 1105-13, 544 amino acids after deletion of 47 amino acids on the C-terminal); 6xHis (C); made in house; host or cells: Escherichia coli
Method in brief: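 His-tagged NS5B (BK strain, 47-aa C-terminal deletion, E. coli-expressed) at 0.5 μg/ml copied 5 μg/ml run-off RNA bearing the HCV 3′ UTR with 2 μM UTP plus [3H]UTP, 50 μM ATP/GTP, in pH 7.5 Tris with 5 mM MgCl2, 25 °C, 90 min. TCA-precipitated RNA was counted and IC50 calculated.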

T1 sequence (P26663 2420-2963): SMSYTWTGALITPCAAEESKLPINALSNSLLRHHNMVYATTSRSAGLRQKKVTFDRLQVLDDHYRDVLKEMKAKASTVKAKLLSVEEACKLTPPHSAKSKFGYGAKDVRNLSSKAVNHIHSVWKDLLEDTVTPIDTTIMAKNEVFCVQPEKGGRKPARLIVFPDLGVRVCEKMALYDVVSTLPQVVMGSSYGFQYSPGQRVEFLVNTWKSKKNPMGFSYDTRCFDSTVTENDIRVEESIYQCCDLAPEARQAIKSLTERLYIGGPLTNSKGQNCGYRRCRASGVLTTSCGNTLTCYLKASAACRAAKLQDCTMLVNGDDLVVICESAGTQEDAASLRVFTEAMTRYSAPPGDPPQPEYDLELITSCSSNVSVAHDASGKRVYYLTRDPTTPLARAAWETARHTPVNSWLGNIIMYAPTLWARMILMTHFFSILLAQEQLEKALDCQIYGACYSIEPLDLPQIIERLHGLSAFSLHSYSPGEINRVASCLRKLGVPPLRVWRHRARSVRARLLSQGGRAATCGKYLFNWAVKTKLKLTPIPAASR

**Q.** How did the IC50 turn out when `Cc1ccc2c(c1)N(CCCN(C(C)C)C(C)C)CCn1c-2c(C2CCCCC2)c2ccc(C(=O)O)cc21` [Example 1-521, 13-cyclohexyl-5-(3-diisopropylaminopropyl)-3-methyl-6,7-dihydro-5H-benzo[5,6][1,4]diazepino[7,1-a]indole-10-carboxylic acid dihydrochloride] was run?
**A.** Its IC50 is < 100 nM.

**Q.** For `O=C(O)c1ccc2c(C3CCCCC3)c3n(c2c1)CCN(CCN1CCCCC1)c1cc(OC(F)(F)F)ccc1-3` [Example 1-522, 13-cyclohexyl-5-[2-(piperidin-1-yl)ethyl]-3-trifluoromethoxy-6,7-dihydro-5H-benzo[5,6][1,4]diazepino[7,1-a]indole-10-carboxylic acid dihydrochloride], which IC50 is on record?
**A.** Its IC50 is < 100 nM.

**Q.** How did the IC50 turn out when `COCC[C@@H]1CCCN(CCN2CCn3c(c(C4CCCCC4)c4ccc(C(=O)O)cc43)-c3ccc(OC(F)(F)F)cc32)C1` [Example 1-523, 13-cyclohexyl-5-{2-[(S)-3-(2-methoxyethyl)piperidin-1-yl]ethyl}-3-trifluoromethoxy-6,7-dihydro-5H-benzo[5,6][1,4]diazepino[7,1-a]indole-10-carboxylic acid dihydrochloride] was run?
**A.** The IC50 was < 100 nM.

**Q.** For `CCN(CCCN1CCn2c(c(C3CCCCC3)c3ccc(C(=O)O)cc32)-c2ccc(C)cc21)C(C)C` [Example 1-524, 13-cyclohexyl-5-[3-(N-ethyl-N-isopropylamino)propyl]-3-methyl-6,7-dihydro-5H-benzo[5,6][1,4]diazepino[7,1-a]indole-10-carboxylic acid dihydrochloride], which IC50 is on record?
**A.** The IC50 was < 100 nM.

**Q.** How did the IC50 turn out when `COC1CCCN(CCN2CCn3c(c(C4CCCCC4)c4ccc(C(=O)O)cc43)-c3ccc(C)cc32)CC1` (stereo not shown) [Example 1-525, 13-cyclohexyl-5-[2-(4-methoxyazepan-1-yl)ethyl]-3-methyl-6,7-dihydro-5H-benzo[5,6][1,4]diazepino[7,1-a]indole-10-carboxylic acid dihydrochloride] was run?
**A.** Its IC50 is < 100 nM.

**Q.** With `Cc1ccc2c(c1)N(CCN1CCC(=O)N(C)CC1)CCn1c-2c(C2CCCCC2)c2ccc(C(=O)O)cc21` [Example 1-526, 13-cyclohexyl-3-methyl-5-[2-(4-methyl-5-oxo-1,4-diazepan-1-yl)ethyl]-6,7-dihydro-5H-benzo[5,6][1,4]diazepino[7,1-a]indole-10-carboxylic acid dihydrochloride] as the compound, how does the IC50 read?
**A.** Its IC50 is < 100 nM.

**Q.** With `Cc1ccc2c(c1)N(CCN1CCC[C@@H](CC(=O)N(C)C)C1)CCn1c-2c(C2CCCCC2)c2ccc(C(=O)O)cc21` [Example 1-527, 13-cyclohexyl-5-{2-[(S)-3-(dimethylcarbamoylmethyl)piperidin-1-yl]ethyl}-3-methyl-6,7-dihydro-5H-benzo[5,6][1,4]diazepino[7,1-a]indole-10-carboxylic acid dihydrochloride] as the compound, how does the IC50 read?
**A.** The IC50 was < 100 nM.

**Q.** With `COCCOC[C@@H]1CCCN(CCN2CCn3c(c(C4CCCCC4)c4ccc(C(=O)O)cc43)-c3ccc(C)cc32)C1` [Example 1-528, 13-cyclohexyl-5-{2-[(R)-3-(2-methoxyethoxymethyl)piperidin-1-yl]ethyl}-3-methyl-6,7-dihydro-5H-benzo[5,6][1,4]diazepino[7,1-a]indole-10-carboxylic acid dihydrochloride] as the compound, how does the IC50 read?
**A.** Its IC50 is < 100 nM.

**Q.** How did the IC50 turn out when `Cc1ccc2c(c1)N(CCN1CCC[C@@H](CC(C)(C)O)C1)CCn1c-2c(C2CCCCC2)c2ccc(C(=O)O)cc21` [Example 1-529, 13-cyclohexyl-5-{2-[(S)-3-(2-hydroxy-2-methylpropyl)piperidin-1-yl]ethyl}-3-methyl-6,7-dihydro-5H-benzo[5,6][1,4]diazepino[7,1-a]indole-10-carboxylic acid dihydrochloride] was run?
**A.** Its IC50 is < 100 nM.

**Q.** Which IC50 does the source give for `COC[C@@H]1CCCN(CCN2CCn3c(c(C4CCCCC4)c4ccc(C(=O)O)cc43)-c3cc(F)c(F)cc32)C1` [Example 1-530, 13-cyclohexyl-2,3-difluoro-5-[2-7((R)-3-methoxymethylpiperidin-1-yl)ethyl]-6,7-dihydro-5H-benzo[5,6][1,4]diazepino[7,1-a]indole-10-carboxylic acid dihydrochloride] here?
**A.** The IC50 was < 100 nM.

**Q.** Which IC50 does the source give for `CCN(CCCOC)CCN1CCn2c(c(C3CCCCC3)c3ccc(C(=O)O)cc32)-c2ccc(C)cc21` [Example 1-531, 13-cyclohexyl-5-{2-[N-ethyl-N-(3-methoxypropyl)amino]ethyl}-3-methyl-6,7-dihydro-5H-benzo[5,6][1,4]diazepino[7,1-a]indole-10-carboxylic acid dihydrochloride] here?
**A.** The IC50 was < 100 nM.

**Q.** `Cc1ccc2c(c1)N(CCN1CCOCC(C)C1)CCn1c-2c(C2CCCCC2)c2ccc(C(=O)O)cc21` (stereo not shown) [Example 1-532, 13-cyclohexyl-3-methyl-5-[2-(6-methyl-1,4-oxazepan-4-yl)ethyl]-6,7-dihydro-5H-benzo[5,6][1,4]diazepino[7,1-a]indole-10-carboxylic acid dihydrochloride] was tested. Which IC50 did it give?
**A.** The IC50 was < 100 nM.

**Q.** Which IC50 does the source give for `Cc1ccc2c(c1)N(CCN1CCC[C@@H](C(C)(C)O)C1)CCn1c-2c(C2CCCCC2)c2ccc(C(=O)O)cc21` [Example 1-533, 13-cyclohexyl-5-{2-[(R)-3-(1-hydroxy-1-methylethyl)piperidin-1-yl]ethyl}-3-methyl-6,7-dihydro-5H-benzo[5,6][1,4]diazepino[7,1-a]indole-10-carboxylic acid dihydrochloride] here?
**A.** The IC50 was < 100 nM.

**Q.** How did the IC50 turn out when `COCCN1CCCC(CCN2CCn3c(c(C4CCCCC4)c4ccc(C(=O)O)cc43)-c3ccc(Cl)cc32)C1` (stereo not shown) [Example 1-534, 3-chloro-13-cyclohexyl-5-{2-[1-(2-methoxyethyl)piperidin-3-yl]ethyl}-6,7-dihydro-5H-benzo[5,6][1,4]diazepino[7,1-a]indole-10-carboxylic acid dihydrochloride] was run?
**A.** Its IC50 is < 100 nM.

**Q.** Which IC50 does the source give for `Cc1noc(C)c1COc1ccc2c(c1)N(CCN(C)C)CCn1c-2c(C2CCCCC2)c2ccc(C(=O)O)cc21` [Example 1-535, 13-cyclohexyl-5-(2-dimethylaminoethyl)-3-(3,5-dimethylisoxazol-4-ylmethoxy)-6,7-dihydro-5H-benzo[5,6][1,4]diazepino[7,1-a]indole-10-carboxylic acid dihydrochloride] here?
**A.** The IC50 was < 100 nM.

**Q.** `Cc1ccc2c(c1)N(CCN1CCCC(=O)CC1)CCn1c-2c(C2CCCCC2)c2ccc(C(=O)O)cc21` [Example 1-536, 13-cyclohexyl-3-methyl-5-[2-(4-oxoazepan-1-yl)ethyl]-6,7-dihydro-5H-benzo[5,6][1,4]diazepino[7,1-a]indole-10-carboxylic acid dihydrochloride] was tested. Which IC50 did it give?
**A.** The IC50 was < 100 nM.

**Q.** With `Cc1ccc2c(c1)N(CCN1CCC[C@@H](CCC(=O)N(C)C)C1)CCn1c-2c(C2CCCCC2)c2ccc(C(=O)O)cc21` [Example 1-537, 13-cyclohexyl-5-{2-[(S)-3-(2-dimethylcarbamoylethyl)piperidin-1-yl]ethyl}-3-methyl-6,7-dihydro-5H-benzo[5,6][1,4]diazepino[7,1-a]indole-10-carboxylic acid dihydrochloride] as the compound, how does the IC50 read?
**A.** Its IC50 is < 100 nM.

**Q.** With `Cc1ccc2c(c1)N(CCN1CCCC(O)CC1)CCn1c-2c(C2CCCCC2)c2ccc(C(=O)O)cc21` (stereo not shown) [Example 1-538, 13-cyclohexyl-5-[2-(4-hydroxyazepan-1-yl)ethyl]-3-methyl-6,7-dihydro-5H-benzo[5,6][1,4]diazepino[7,1-a]indole-10-carboxylic acid dihydrochloride] as the compound, how does the IC50 read?
**A.** Its IC50 is < 100 nM.

**Q.** `CCN(CCCCOC)CCN1CCn2c(c(C3CCCCC3)c3ccc(C(=O)O)cc32)-c2ccc(C)cc21` [Example 1-539, 13-cyclohexyl-5-{2-[N-ethyl-N-(4-methoxybutyl)amino]ethyl}-3-methyl-6,7-dihydro-5H-benzo[5,6][1,4]diazepino[7,1-a]indole-10-carboxylic acid dihydrochloride] was tested. Which IC50 did it give?
**A.** The IC50 was < 100 nM.

**Q.** With `COCCCC1CCCN(CCN2CCn3c(c(C4CCCCC4)c4ccc(C(=O)O)cc43)-c3ccc(C)cc32)C1` [Example 1-540, 13-cyclohexyl-5-{2-[(S)-3-(3-methoxypropyl)piperidin-1-yl]ethyl}-3-methyl-6,7-dihydro-5H-benzo[5,6][1,4]diazepino[7,1-a]indole-10-carboxylic acid dihydrochloride] as the compound, how does the IC50 read?
**A.** Its IC50 is < 100 nM.

**Q.** How did the IC50 turn out when `COC(C)(C)[C@@H]1CCCN(CCN2CCn3c(c(C4CCCCC4)c4ccc(C(=O)O)cc43)-c3ccc(C)cc32)C1` [Example 1-541, 13-cyclohexyl-5-{2-[(R)-3-(1-methoxy-1-methylethyl)piperidin-1-yl]ethyl}-3-methyl-6,7-dihydro-5H-benzo[5,6][1,4]diazepino[7,1-a]indole-10-carboxylic acid dihydrochloride] was run?
**A.** Its IC50 is < 100 nM.

**Q.** `COCCC1CCCCN1CCN1CCn2c(c(C3CCCCC3)c3ccc(C(=O)O)cc32)-c2ccc(C)cc21` (stereo not shown) [Example 1-542, 13-cyclohexyl-5-{2-[2-(2-methoxyethyl)piperidin-1-yl]ethyl}-3-methyl-6,7-dihydro-5H-benzo[5,6][1,4]diazepino[7,1-a]indole-10-carboxylic acid dihydrochloride] was tested. Which IC50 did it give?
**A.** Its IC50 is < 100 nM.

**Q.** How did the IC50 turn out when `CN(C)CCN1CCn2c(c(C3CCCCC3)c3ccc(C(=O)O)cc32)-c2ccc(OCc3ccccn3)cc21` [Example 1-543, 13-cyclohexyl-5-(2-dimethylaminoethyl)-3-(pyridin-2-ylmethoxy)-6,7-dihydro-5H-benzo[5,6][1,4]diazepino[7,1-a]indole-10-carboxylic acid trihydrochloride] was run?
**A.** Its IC50 is < 100 nM.

**Q.** How did the IC50 turn out when `COCC[C@@H]1CCCN(CCN2CCn3c(c(C4CCCCC4)c4ccc(C(=O)O)cc43)-c3cc(F)c(F)cc32)C1` [Example 1-544, 13-cyclohexyl-2,3-difluoro-5-{2-[(S)-3-(2-methoxyethyl)piperidin-1-yl]ethyl}-6,7-dihydro-5H-benzo[5,6][1,4]diazepino[7,1-a]indole-10-carboxylic acid dihydrochloride] was run?
**A.** The IC50 was < 100 nM.

**Q.** `Cc1ccc2c(c1)N(CCN1CCCC(C(=O)N(C)C)C1)CCn1c-2c(C2CCCCC2)c2ccc(C(=O)O)cc21` (stereo not shown) [Example 1-545, 13-cyclohexyl-5-[2-(3-dimethylcarbamoylpiperidin-1-yl)ethyl]-3-methyl-6,7-dihydro-5H-benzo[5,6][1,4]diazepino[7,1-a]indole-10-carboxylic acid dihydrochloride] was tested. Which IC50 did it give?
**A.** Its IC50 is < 100 nM.
